In article PMC4230446 (Biochemistry, 2009):

Biological target: T1, pyruvate formate-lyase activating enzyme (PFL-AE) (Escherichia coli, UniProt P0A9N4)
T1 sequence (P0A9N4 2-246): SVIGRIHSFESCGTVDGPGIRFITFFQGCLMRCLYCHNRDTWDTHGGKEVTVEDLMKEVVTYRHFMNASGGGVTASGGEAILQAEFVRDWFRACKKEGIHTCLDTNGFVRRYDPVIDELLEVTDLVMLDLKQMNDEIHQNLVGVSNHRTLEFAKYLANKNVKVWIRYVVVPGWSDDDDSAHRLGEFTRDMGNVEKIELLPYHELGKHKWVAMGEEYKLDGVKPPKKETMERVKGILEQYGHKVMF
Assay: […] Mössbauer spectroscopy
Format: binding
Details: 0.64 mM enzyme, [4Fe-4S]2+ state; 4.2 K, 50 mT; unique Fe site of cluster

Structure (SMILES) | fraction of LOC cluster at 6.4 mM
Nc1ncnc2c1ncn2[C@@H]1O[C@H](COP(=O)(O)OP(=O)(O)O)[C@@H](O)[C@H]1O [ADP] | 50 % of total Fe
Nc1ncnc2c1ncn2[C@@H]1O[C@H](COP(=O)(O)O)[C@@H](O)[C@H]1O [AMP] | 69 % of total Fe
